ChEMBL document CHEMBL1132322, “Paullones, a series of cyclin-dependent kinase inhibitors: synthesis, evaluation of CDK1/cyclin B inhibition, and in vitro antitumor activity” (J Med Chem, 1999)

What was measured:
Assay in all cases: cells
HCT-116 [1] = type: functional; settings: Homo sapiens
Description: The logarithmic molar concentration inhibiting 50% net cell growth was measured on HCT116 (M) colon cancer cell lines.

Tumor Cell line [2] = type: functional; settings: Homo sapiens
Tumor Cell line [3] = settings: Homo sapiens, read-out: Log GI50 (converted)
Tumor Cell line [4] = settings: Homo sapiens, read-out: Log GI50 (converted); remark: listed apart in the source
HCT-116 [5] = type: functional; settings: Homo sapiens; remark: listed apart in the source
Description: The logarithmic molar concentration inhibiting 50% net cell growth was measured on HCT116 (M)colon cancer cell lines (in experiment 2)

HCT-116 [6] = type: functional; settings: Homo sapiens; remark: listed apart in the source
Description: The logarithmic molar concentration inhibiting 50% net cell growth was measured on HCT116 (M)colon cancer cell lines (in experiment 1)

Compound | GI50 (HCT-116 [1]) [µM] | GI50 (Tumor Cell line [2]) [µM] | also measured
O=C1Cc2c([nH]c3c(Cl)cccc23)-c2ccccc2N1 | > 100 | 100 | –
O=C1Cc2c([nH]c3ccc(Br)cc23)-c2ccccc2N1Cc1ccccc1 [PAULLONE] | 20 | – | GI50 (Tumor Cell line [3]): 31.6 µM; GI50 (Tumor Cell line [4]): 100 µM
O=C1Cc2c([nH]c3ccc([N+](=O)[O-])cc23)-c2ccccc2N1 [ALSTERPAULLONE] | – | – | GI50 (Tumor Cell line [3]): 0.398 µM; GI50 (Tumor Cell line [4]): 0.316 µM
COC(=O)CN1C(=O)Cc2c([nH]c3ccc(Br)cc23)-c2ccccc21 | – | – | GI50 (Tumor Cell line [4]): 31.6 µM
CSC1=Nc2ccccc2-c2[nH]c3ccc(Br)cc3c2C1 | – | – | GI50 (HCT-116 [5]): 1.58 µM
CCN1C(=O)Cc2c([nH]c3ccc(Br)cc23)-c2ccccc21 | – | – | GI50 (HCT-116 [6]): > 100 µM; GI50 (HCT-116 [5]): 12.6 µM; GI50 (Tumor Cell line [3]): 25.1 µM; GI50 (Tumor Cell line [4]): 12.6 µM
CN1C(=O)Cc2c([nH]c3ccc(Br)cc23)-c2ccccc21 | – | – | GI50 (Tumor Cell line [3]): 31.6 µM
COc1cccc2c1NC(=O)Cc1c-2[nH]c2ccccc12 | – | 79.4 | –
O=C1Cc2c([nH]c3ccccc23)-c2cc(Br)ccc2N1 | > 100 | 100 | –
O=C1Cc2c([nH]c3ccc(Br)cc23)-c2cc(Br)ccc2N1 | – | 100 | –
O=C1Cc2c([nH]c3ccc(Br)cc23)-c2cc(O)c(O)cc2N1 | – | 100 | –

More lines, in order of falling GI50 (Tumor Cell line [2]), values ahead:

GI50 (HCT-116 [1]) [µM] | GI50 (Tumor Cell line [2]) [µM] | Compound | also measured
20 | 79.4 | N#Cc1ccc2[nH]c3c(c2c1)CC(=O)Nc1ccccc1-3 [PAULLONE 2] | –
3.16 | 79.4 | O=C1Cc2c([nH]c3ccc(Cl)cc23)-c2ccccc2N1 | –
79.4 | 63.1 | CCc1cccc2c3c([nH]c12)-c1ccccc1NC(=O)C3 | –
– | 50.1 | O=C1Cc2c([nH]c3c(Br)cccc23)-c2ccccc2N1 | –
– | 39.8 | O=C1Cc2c([nH]c3ccc(Br)cc23)-c2ccccc2N1 [KENPAULLONE] | –
15.8 | 31.6 | O=C1Cc2c([nH]c3ccccc23)-c2ccccc2N1 [PAULLONE] | –
3.16 | 15.8 | O=C1Cc2c([nH]c3cc(Br)ccc23)-c2ccccc2N1 | –
6.31 | 10 | ONC1=Nc2ccccc2-c2[nH]c3ccc(Br)cc3c2C1 | –
0.0251 | 0.0631 | CN1CCC(c2c(O)cc(O)c3c(=O)cc(-c4ccccc4Cl)oc23)[C@@H](O)C1 (stereo not given in full) | –
